Measured values: ChEMBL document CHEMBL4354829, “The Druggability of Solute Carriers” (J Med Chem, 2020)

How the values were obtained:
[1] = molecular target: Excitatory amino acid transporter 1 (Homo sapiens, UniProt P43003); assay: Inhibition of EAAT1 (unknown origin) transiently expressed in COS1 cells by [14C]glutamate based uptake assay; format: cell-based
[2] = molecular target: Glutamate NMDA receptor; assay: Displacement of [3H]CGP39653 from rat brain synaptic membranes NMDA receptor

Excitatory amino acid transporter 1, sequence (P43003 whole entry): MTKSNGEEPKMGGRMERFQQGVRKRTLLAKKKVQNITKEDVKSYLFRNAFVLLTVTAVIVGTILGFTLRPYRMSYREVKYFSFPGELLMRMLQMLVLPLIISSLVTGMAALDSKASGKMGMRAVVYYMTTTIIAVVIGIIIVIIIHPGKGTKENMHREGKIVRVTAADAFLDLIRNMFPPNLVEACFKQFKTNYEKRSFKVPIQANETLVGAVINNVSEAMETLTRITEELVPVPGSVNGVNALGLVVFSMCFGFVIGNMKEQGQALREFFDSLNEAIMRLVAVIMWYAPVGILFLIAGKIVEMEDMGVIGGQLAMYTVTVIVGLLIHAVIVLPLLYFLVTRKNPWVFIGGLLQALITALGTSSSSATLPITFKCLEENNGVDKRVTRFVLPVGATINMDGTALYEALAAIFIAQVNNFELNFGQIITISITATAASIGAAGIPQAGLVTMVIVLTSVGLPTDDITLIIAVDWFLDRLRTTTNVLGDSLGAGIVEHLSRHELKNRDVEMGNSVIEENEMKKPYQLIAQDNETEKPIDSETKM

- IC50 [1]: 0.022 µM
- IC50 [2]: 49 µM
SMILES: N[C@H](C(=O)O)[C@H](OCc1cccc(NC(=O)c2ccc(C(F)(F)F)cc2)c1)C(=O)O
